In assay [1] the target is D-amino-acid oxidase (Homo sapiens, UniProt P14920). In words: Inhibition of human DAO.
For assay [2], the target named is Telomerase reverse transcriptase (Homo sapiens, UniProt O14746). In words: Inhibition of telomerase activity in human A2780 cells incubated for 10 mins by SYBR Green 1 staining based TRAP assay. Type of assay: cell-based.
In assay [3] the target is T1, Tyrosinase (Agaricus bisporus, UniProt O42713).
T1 sequence (O42713 whole entry): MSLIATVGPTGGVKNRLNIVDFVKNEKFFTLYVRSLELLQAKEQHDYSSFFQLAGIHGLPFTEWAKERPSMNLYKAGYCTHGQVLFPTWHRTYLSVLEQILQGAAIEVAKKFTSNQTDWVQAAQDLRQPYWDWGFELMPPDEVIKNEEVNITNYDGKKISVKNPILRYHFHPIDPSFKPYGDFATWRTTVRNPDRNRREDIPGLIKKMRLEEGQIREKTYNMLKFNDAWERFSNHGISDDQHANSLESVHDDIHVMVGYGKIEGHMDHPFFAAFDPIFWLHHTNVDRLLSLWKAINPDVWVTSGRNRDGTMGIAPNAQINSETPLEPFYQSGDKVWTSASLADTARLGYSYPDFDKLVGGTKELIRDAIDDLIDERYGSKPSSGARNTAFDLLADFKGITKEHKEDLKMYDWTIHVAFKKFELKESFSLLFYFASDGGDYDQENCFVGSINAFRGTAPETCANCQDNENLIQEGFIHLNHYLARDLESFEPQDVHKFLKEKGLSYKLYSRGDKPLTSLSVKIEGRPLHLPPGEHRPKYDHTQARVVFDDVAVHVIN
Put plainly: Inhibition of mushroom tyrosinase using L-DOPA as substrate.

The target of assay [4] is Signal transducer and activator of transcription 3 (Homo sapiens, UniProt P40763). In words: Inhibition of STAT3 (unknown origin).
Sequence of Signal transducer and activator of transcription 3 (P40763 whole entry): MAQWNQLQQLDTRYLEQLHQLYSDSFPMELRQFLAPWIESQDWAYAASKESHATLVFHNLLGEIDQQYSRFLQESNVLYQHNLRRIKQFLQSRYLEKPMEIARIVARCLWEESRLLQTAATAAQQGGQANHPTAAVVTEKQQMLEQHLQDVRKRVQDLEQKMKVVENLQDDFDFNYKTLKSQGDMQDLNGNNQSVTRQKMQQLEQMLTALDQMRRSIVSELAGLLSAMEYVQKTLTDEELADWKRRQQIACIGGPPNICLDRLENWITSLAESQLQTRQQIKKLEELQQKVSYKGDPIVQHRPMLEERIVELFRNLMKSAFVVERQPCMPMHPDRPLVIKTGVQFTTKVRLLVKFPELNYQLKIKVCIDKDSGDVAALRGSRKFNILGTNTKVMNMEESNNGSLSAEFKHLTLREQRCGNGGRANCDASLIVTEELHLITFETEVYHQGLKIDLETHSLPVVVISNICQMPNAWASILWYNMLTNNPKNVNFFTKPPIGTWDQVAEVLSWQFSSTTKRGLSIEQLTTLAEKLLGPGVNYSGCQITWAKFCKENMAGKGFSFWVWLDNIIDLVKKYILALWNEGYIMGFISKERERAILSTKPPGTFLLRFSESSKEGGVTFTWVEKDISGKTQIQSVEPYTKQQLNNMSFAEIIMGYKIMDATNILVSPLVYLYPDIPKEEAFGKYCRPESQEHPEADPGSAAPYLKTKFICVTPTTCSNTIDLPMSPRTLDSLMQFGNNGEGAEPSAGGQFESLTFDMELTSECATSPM
Assay [5] addresses Protease (Human immunodeficiency virus 1, UniProt Q9YQ12, V82A). Put plainly: Inhibition of HIV-1 protease V82A mutant.
Assay [6] addresses Protease (Human immunodeficiency virus 1, UniProt Q9YQ12, V82F). In words: Inhibition of HIV-1 protease V82F mutant.
The target in assay [7] is Protease (Human immunodeficiency virus 1, UniProt Q9YQ12). In words: Inhibition of HIV-1 protease.
Sequence of Protease (Human immunodeficiency virus 1, UniProt Q9YQ12) (Q9YQ12 whole entry): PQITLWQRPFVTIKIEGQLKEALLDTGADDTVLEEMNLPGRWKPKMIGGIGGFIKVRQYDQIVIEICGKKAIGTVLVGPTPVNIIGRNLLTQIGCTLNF
Assay [8] has as its target Protease (Human immunodeficiency virus 1, UniProt Q9YQ12, G48V). Put plainly: Inhibition of HIV-1 protease G48V mutant.
Assay [9] addresses Carbonic anhydrase. In words: Inhibition of carbonic anhydrase (unknown origin). Type of assay: protein assay, Homo sapiens.

Structures are written as SMILES. Where a SMILES comes first, the peptide text is derived from it.

Sequence of Telomerase reverse transcriptase (O14746 whole entry): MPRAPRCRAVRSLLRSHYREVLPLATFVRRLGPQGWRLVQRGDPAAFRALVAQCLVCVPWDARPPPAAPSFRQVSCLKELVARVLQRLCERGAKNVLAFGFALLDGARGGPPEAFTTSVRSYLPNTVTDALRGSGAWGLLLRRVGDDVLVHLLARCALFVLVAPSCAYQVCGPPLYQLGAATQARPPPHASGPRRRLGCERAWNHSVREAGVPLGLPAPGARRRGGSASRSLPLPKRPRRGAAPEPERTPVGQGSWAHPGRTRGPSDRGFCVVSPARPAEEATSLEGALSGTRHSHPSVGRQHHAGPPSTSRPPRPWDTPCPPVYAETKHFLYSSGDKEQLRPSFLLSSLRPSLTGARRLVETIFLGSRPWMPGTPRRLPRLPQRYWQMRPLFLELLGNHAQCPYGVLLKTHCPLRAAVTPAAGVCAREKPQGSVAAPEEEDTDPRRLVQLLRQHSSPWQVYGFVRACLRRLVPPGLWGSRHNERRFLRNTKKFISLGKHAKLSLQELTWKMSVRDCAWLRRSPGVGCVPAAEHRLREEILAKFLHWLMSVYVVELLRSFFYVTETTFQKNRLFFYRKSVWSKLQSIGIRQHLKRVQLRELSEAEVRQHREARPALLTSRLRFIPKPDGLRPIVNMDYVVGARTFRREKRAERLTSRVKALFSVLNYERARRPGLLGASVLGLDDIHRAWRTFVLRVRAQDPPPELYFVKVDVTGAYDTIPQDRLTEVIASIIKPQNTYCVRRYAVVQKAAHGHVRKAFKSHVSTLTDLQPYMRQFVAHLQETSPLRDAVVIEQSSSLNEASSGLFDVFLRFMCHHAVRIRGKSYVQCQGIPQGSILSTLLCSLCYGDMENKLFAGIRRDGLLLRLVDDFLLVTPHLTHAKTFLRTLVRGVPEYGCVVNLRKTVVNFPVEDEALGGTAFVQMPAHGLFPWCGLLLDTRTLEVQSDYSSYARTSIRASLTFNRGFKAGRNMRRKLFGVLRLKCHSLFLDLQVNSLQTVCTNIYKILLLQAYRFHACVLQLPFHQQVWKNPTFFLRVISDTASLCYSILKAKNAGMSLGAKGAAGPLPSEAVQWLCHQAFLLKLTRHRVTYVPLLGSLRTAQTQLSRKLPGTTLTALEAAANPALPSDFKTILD
Sequence of Protease (Human immunodeficiency virus 1, UniProt Q9YQ12, G48V) (Q9YQ12 entry or part of it G48V): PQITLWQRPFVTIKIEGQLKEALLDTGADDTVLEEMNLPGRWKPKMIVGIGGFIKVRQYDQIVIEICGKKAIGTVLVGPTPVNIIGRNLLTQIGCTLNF
Sequence of Protease (Human immunodeficiency virus 1, UniProt Q9YQ12, V82A) (Q9YQ12 entry or part of it V82A): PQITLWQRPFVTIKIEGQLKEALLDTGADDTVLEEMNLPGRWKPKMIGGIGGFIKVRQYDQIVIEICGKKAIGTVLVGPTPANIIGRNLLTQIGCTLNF
Sequence of Protease (Human immunodeficiency virus 1, UniProt Q9YQ12, V82F) (Q9YQ12 entry or part of it V82F): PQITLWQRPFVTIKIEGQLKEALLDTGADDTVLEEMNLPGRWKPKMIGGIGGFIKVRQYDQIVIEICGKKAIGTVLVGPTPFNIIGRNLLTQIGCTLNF
Sequence of D-amino-acid oxidase (P14920 whole entry): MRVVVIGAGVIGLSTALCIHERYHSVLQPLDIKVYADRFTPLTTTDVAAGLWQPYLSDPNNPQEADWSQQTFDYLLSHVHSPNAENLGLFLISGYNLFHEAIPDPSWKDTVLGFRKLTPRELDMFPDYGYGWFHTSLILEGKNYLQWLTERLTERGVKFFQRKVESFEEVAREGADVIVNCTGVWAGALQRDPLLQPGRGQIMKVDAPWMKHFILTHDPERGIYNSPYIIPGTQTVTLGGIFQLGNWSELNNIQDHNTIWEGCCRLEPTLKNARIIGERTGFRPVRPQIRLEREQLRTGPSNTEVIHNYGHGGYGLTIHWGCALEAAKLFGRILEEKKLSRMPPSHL

The Ki is the equilibrium dissociation constant of an inhibitor or competing ligand from its target. In assay [1], `COC(=O)/C(Cc1ccc(O)cc1)=N\OCCc1cn(CC(=O)NC(Cc2ccccc2)C(=O)O)nn1` (stereo not given) had a Ki of 1000 µM. The term EC50 denotes the midpoint of the concentration-response curve. High values mean a need for much substance, low ones an effect from little substance. `CCN(CC)CCC(=O)Nc1ccc(-n2cc(-c3cccc(-c4cn(-c5ccc(NC(=O)CCN(CC)CC)cc5)nn4)c3)nn2)cc1` came in with a concentration for a half-maximal effect (EC50) in [2] of 23.5 µM. The term IC50 denotes the concentration needed to halve the response being measured. A higher IC50 goes with weaker potency in that assay. In [3], `CC(C)[C@@H]1NC(=O)[C@@H]2CCCN2C(=O)[C@H](Cc2ccc(O)cc2)NC(=O)[C@@H]2CCCN2C1=O` (cyclo(PVPY)) showed an IC50 of 1500 µM. Turning to `CC(=O)N[C@H](Cc1ccc(OP(=O)(O)O)cc1)C(=O)N[C@@H](C(=O)N[C@@H]1CCCCn2cc(nn2)C[C@H](C(=O)N[C@@H](Cc2ccccc2)C(N)=O)NC(=O)[C@H]([C@@H](C)O)NC1=O)C(C)C`, in [4], affinity was put at a Ki of 7.3 µM.

Consider `COc1ccc(S(=O)(=O)N(CC(C)C)C[C@H](O)[C@@H](Cc2ccccc2)n2cc(COC(=O)N[C@H]3c4ccccc4C[C@H]3O)nn2)cc1`, for which the Ki in assay [5], in [6], in [7] and in [8] was 0.0017 µM each time. For the molecule `O=C(CCN1CCCC1)Nc1ccc(-n2cc(-c3cccc(-c4cn(-c5ccc(NC(=O)CCN6CCCC6)cc5)nn4)c3)nn2)cc1`, the EC50 in assay [2] came to 13.3 µM. In [3], `CC(C)[C@H]1C(=O)N2CCC[C@H]2c2cn(nn2)[C@@H](Cc2ccc(OCc3ccccc3)cc2)C(=O)N2CCC[C@H]2c2cn1nn2` showed an IC50 of 1600 µM. Same read-out and setting: the figure for `CC(C)[C@@H]1NC(=O)[C@@H]2CCCN2C(=O)[C@H](Cc2ccc(OCc3ccccc3)cc2)n2cc(nn2)[C@@H]2CCCN2C1=O` is 500 µM.

`O=C(CCN1CCCCC1)Nc1ccc(-n2cc(-c3cccc(-c4cn(-c5ccc(NC(=O)CCN6CCCCC6)cc5)nn4)c3)nn2)cc1` showed a 50% effective concentration (EC50) in assay [2] of 17.1 µM. For the molecule `COC(=O)[C@H](CCCCN)NC(=O)[C@@H](NC(=O)[C@@H](CCCCN)NC(=O)[C@@H](NC(=O)[C@@H](Cc1ccc(OP(=O)(O)O)cc1)NC(C)=O)C(C)C)[C@@H](C)O`, in [4], the inhibition constant Ki was found to be 21.9 µM. The molecule `NS(=O)(=O)c1ccc(-c2cn([C@H](Cc3ccccc3)C(=O)NCCc3ccsc3)nn2)cc1` came in with an inhibition constant (Ki) in assay [9] of 0.0002 µM. Still for that read-out and setting: the figure for `CC(C)[C@H](C(=O)NCc1ccccc1)n1cc(-c2ccc(S(N)(=O)=O)cc2)nn1` is 0.0002 µM.

The record behind these values is ChEMBL document CHEMBL4354790, “Tailored therapeutics based on 1,2,3-1H-triazoles: a mini review” (Medchemcomm, 2019).
